Reference: EP1495132B1, “SYSTEMIC MARKER FOR MONITORING ANTI-INFLAMMATORY AND ANTIOXIDANT ACTIONS OF THERAPEUTIC AGENTS” (priority 2002, dated 2003)
“And” between values parts separate entries of the source, which are not always exact repeats. Identical values can stand only once.

Experiments:
[1] = biological target: T1, human MPO (Homo sapiens, UniProt P05164); test: MPO-dependent initiation of lipid peroxidation of endogenous plasma lipids (isolated MPO plus glucose/glucose oxidase); type: biochemical; details: 30 nM MPO, G/GO, 50% plasma, 12 h, 37° C; 1 mM NaN3, 300 nM catalase, 200 nM SOD, 100 µM methionine, 100 µM ascorbate
T1 construct: from tissue; host or cells: human leukocytes, for the MPO standard of the ELISA; the lipid peroxidation text only says 'isolated'/'purified' and cites the literature
Procedure: Neutrophils (1×10^6/ml) isolated from normal and MPO-deficient individuals were incubated at 37° C in HBSS supplemented with DTPA (100 µM, pH 7.0) and fresh human plasma (50% v/v). Cells were activated by addition of phorbol myristate acetate (PMA, 200 nM) and incubated for 2 h (Complete System). The content of 9-H(P)ODE and 9-H(P)ETE formed within endogenous plasma lipids were then determined by LC/ESI/MS/MS. Where indicated, human MPO (30 nM) was added to reaction mixtures. Data represent the mean ±SD of triplicate determinations. Each bar within a cluster for a given condition represents results obtained from independent experiments performed with neutrophil preparations from a distinct donor. PMN(MPO+), neutrophils isolated from normal subjects; PMN(MPO-), neutrophils isolated from MPO-deficient subjects. • Figs. 5(A-B) are graphs showing the characterization of neutrophil-dependent initiation of lipid peroxidation of endogenous plasma lipids. […] The content of 9-H(P)ODE and 9-H(P)ETE formed within endogenous plasma lipids were then determined by LC/ESI/MS/MS. […] The content of 9-H(P)ODE and 9-H(P)ETE formed within endogenous plasma lipids were then determined by LC/ESI/MS/MS. […] The contents of the indicated oxidized PC species were determined in native LDL and LDL oxidized by the MPO-H2O2-NO2 system (NO2-LDL) using LC/ESI/MS/MS. […]

[2] = tested on: Human neutrophils; test: Neutrophil-dependent initiation of lipid peroxidation of endogenous plasma lipids (PMA-activated neutrophils, LC/ESI/MS/MS); type: cell-based; details: 50% plasma, 2 h, 37° C, 1 mM NaN3, 300 nM catalase, 100 µM methionine, 100 µM ascorbate, 10 µg/ml SOD
Procedure: Neutrophils (1×10^6/ml) isolated from normal and MPO-deficient individuals were incubated at 37° C in HBSS supplemented with DTPA (100 µM, pH 7.0) and fresh human plasma (50% v/v). Cells were activated by addition of phorbol myristate acetate (PMA, 200 nM) and incubated for 2 h (Complete System). The content of 9-H(P)ODE and 9-H(P)ETE formed within endogenous plasma lipids were then determined by LC/ESI/MS/MS. Where indicated, human MPO (30 nM) was added to reaction mixtures. Data represent the mean ±SD of triplicate determinations. Each bar within a cluster for a given condition represents results obtained from independent experiments performed with neutrophil preparations from a distinct donor. PMN(MPO+), neutrophils isolated from normal subjects; PMN(MPO-), neutrophils isolated from MPO-deficient subjects. • Figs. 5(A-B) are graphs showing the characterization of neutrophil-dependent initiation of lipid peroxidation of endogenous plasma lipids. Neutrophils (1×10^6/ml) isolated from normal subjects (PMN) were incubated at 37° C in HBSS supplemented with DTPA (100 µM, pH 7.0) and fresh human plasma (50% v/v). Cells were activated by addition of phorbol myristate acetate (PMA, 200 nM) and then incubated for 2 h (Complete System). The content of 9-H(P)ODE and 9-H(P)ETE formed within endogenous plasma lipids were then determined by LC/ESI/MS/MS. Additions or deletions to the Complete System were as indicated. The final concentrations of additions to the Complete System were 30 nM human MPO, 1 mM NaN3, 300 nM catalase (Cat), 300 nM heat inactivated-catalase (hiCat), 100 µM methionine (Met), 100 µM ascorbate and 10 µg/ml superoxide dismutase (SOD). […] The content of 9-H(P)ODE and 9-H(P)ETE formed within endogenous plasma lipids were then determined by LC/ESI/MS/MS. […] The contents of the indicated oxidized PC species were determined in native LDL and LDL oxidized by the MPO-H2O2-NO2 system (NO2-LDL) using LC/ESI/MS/MS. […]

[3] = tested on: MPO and multiple distinct oxidation products formed by MPO; test: Example 14: plasma MPO and oxidation products, ARB therapy; type: in vivo, human; details: 16 weeks of losartan 25 mg PO QD, n=16
Text: Angiotensin receptor blocking agents are a new therapy used for treatment of hypertension. They act upon the same biochemical axis as ACEI. Accordingly, they promote clinical benefits beyond those linked to blood pressure reduction - those related to presumed anti-inflammatory and antioxidant actions. However, no means for objectively monitoring these effects have been available. We hypothesized that monitoring levels of MPO and its oxidation products might serve as a way of quantifying the anti-inflammatory and antioxidant effects of ARBs. […] These studies underscore the potential utility of MPO and its oxidation products for monitoring systemic antioxidant and anti-inflammatory effects of therapeutic interventions.

[4] = tested on: MPO; test: Example 15: plasma levels of MPO, statin therapy; type: in vivo, human; details: n=27
[5] = tested on: oxidation products produced by myeloperoxidase and nitric oxide-derived oxidants; test: Prospective intervention study: plasma protein-bound tyrosine oxidation products at baseline and after 12 weeks of atorvastatin; type: in vivo, human
[6] = tested on: MPO-generated markers of protein and lipid oxidation; test: Example 10: MPO-generated oxidation markers and hs-CRP after 12 weeks of atorvastatin (Figs. 14, 15); type: in vivo, human; details: baseline vs 12 weeks of atorvastatin 10 mg PO QHS
[7] = tested on: lipid levels and high-sensitivity CRP
Procedure: Wilcoxon rank-sum test was used to analyze the differences between measurements at baseline and 12 weeks. […] Approximate 95% confidence intervals were found using Fisher's r-to-z transform. Multiple regression analyses were performed to determine factors associated with changes in nitrotyrosine levels.
We performed a prospective, open-label study. The study cohort consisted of a consecutive sample of patients (n=35) recruited from the Preventive Cardiology Clinic at the Cleveland Clinic Foundation. Patients 21 years of age and older without clinical evidence of coronary artery disease and with LDL cholesterol (LDL-C) levels 130 mg per deciliter or greater, despite at least 6-8 weeks of therapeutic lifestyle interventions, were eligible to participate in the study. Briefly, at initial screening, a detailed medical history was obtained, a thorough physical examination was performed, and a fasting lipoprotein profile was obtained. Patients potentially eligible for the study received counseling on nutritional and exercise interventions. If after 6-8 weeks LDL-C remained above 130 mg/dL, patients were eligible for enrollment in the study. […] Fasting morning plasma samples were collected prior to initiation of therapy (baseline), and following 12 weeks of therapy. Patients with active liver disease or renal insufficiency defined as a serum creatinine level of 1.8 mg per deciliter or greater were excluded. […] All patients gave written informed consent, and the Institutional Review Board at the Cleveland Clinic Foundation approved the study protocol.
Blood samples were collected into EDTA tubes from fasting patients. Samples were centrifuged at 3500 rpm for 10 minutes at 4°C, and stored under conditions to minimize artificial oxidation (i.e., with antioxidant cocktail, under inert atmosphere). Briefly, plasma was removed and allocated into tubes containing butylated hydroxytoluene (100µM final) and diethylenetriaminepentaacetic acid (100µM final) overlaid with argon and stored at -80°C until analysis. Standard methods were used to measure lipid levels and high-sensitivity CRP.
Data are presented as mean ± SD, and significance level was set at p < 0.05. Wilcoxon rank-sum test was used to analyze the differences between NO2Tyr, diTyr, and CRP at baseline and 12 weeks, as they were not normally distributed.

[8] = tested on: oxidation products produced by myeloperoxidase and nitric oxide-derived oxidants; test: Prospective intervention study: plasma protein-bound tyrosine oxidation products at baseline and after 12 weeks of atorvastatin; type: in vivo, human; remark: listed apart in the source
Procedure: The population consisted of a consecutive sample of patients recruited from the Preventive Cardiology Clinic at the Cleveland Clinic Foundation from June 2001 until January 2002 who were eligible and consented to participate in the study. Patients 21 years of age and older without clinical evidence of CAD and with low-density lipoprotein cholesterol (LDL-C) levels ≥ 130mg/dL, despite at least 6-8 weeks of therapeutic lifestyle interventions, were eligible to participate in the study. Briefly at initial screening, a detailed medical history was obtained, a thorough physical examination was performed, and a fasting lipoprotein profile was obtained. Patients potentially eligible for the study received counseling on nutritional and exercise interventions. If after 6-8 weeks LDL-C remained ≥130mg/dL, patients were eligible for enrollment in the study. […] Patient with active liver disease or renal insufficiency defined as serum creatine levels of 1.8 mg per deciliter or greater were excluded. […] All patients gave written informed consent, and the Institutional Review Board at the Cleveland Clinic Foundation approved the study protocol.
Blood samples were collected into serum separator tubes (Case-control study) or EDTA tubes (Intervention study) from overnight fasted patients. Samples were centrifuged at 3500 rpm for 10 minutes, plasma/serum recovered, and aliquots stored at -80°C until analysis. Personnel blinded to clinical data performed all laboratory measurements. Lipoprotein/lipid profiles and high sensitivity C-reactive protein (CRP) measurements were performed using CDC standardized assays.
Protein-bound nitrotyrosine levels were determined by stable isotope dilution liquid chromatography-electrospray ionization tandem mass spectrometry based methods using an ion trap mass spectrometer (LCQ Deca, ThermoFinigann, San Jose, CA). […] Nitrotyrosine content in samples is expressed as the mole ratio between nitrotyrosine and the precursor amino acid tyrosine. […]

[9] = tested on: MPO and multiple distinct oxidation products formed by MPO; test: Example 13: plasma MPO and oxidation products, ACEI therapy; type: in vivo, human; details: 16 weeks of lisinopril 20 mg PO QD, n=9
Procedure: Subjects (n=9) had plasma drawn at baseline, and then 16 weeks following therapy with lisinopril (Zestril, 20 mg PO QD). Plasma levels of MPO, protein-bound nitrotyrosine, chlorotyrosine, dityrosine, and 9-H(P)ETE and F2Isoprostantes were monitored.

[10] = baseline to 12 weeks, atorvastatin 10 mg per day, n = 35
[11] = plasma protein-bound, 12 Weeks of atorvastatin 10 mg orally per day, n = 35, mean ± SD
[12] = reduction, baseline to 12 weeks, atorvastatin 10 mg per day, given unsigned
[13] = reduction, baseline to 12 weeks, atorvastatin 10 mg per day, given unsigned, not significant
[14] = n=35, LDL cholesterol ≥ 130mg/dL
[15] = 12 Weeks of atorvastatin 10 mg orally per day, n = 35, mean ± SD

T1 sequence (P05164 279-745 limits assumed): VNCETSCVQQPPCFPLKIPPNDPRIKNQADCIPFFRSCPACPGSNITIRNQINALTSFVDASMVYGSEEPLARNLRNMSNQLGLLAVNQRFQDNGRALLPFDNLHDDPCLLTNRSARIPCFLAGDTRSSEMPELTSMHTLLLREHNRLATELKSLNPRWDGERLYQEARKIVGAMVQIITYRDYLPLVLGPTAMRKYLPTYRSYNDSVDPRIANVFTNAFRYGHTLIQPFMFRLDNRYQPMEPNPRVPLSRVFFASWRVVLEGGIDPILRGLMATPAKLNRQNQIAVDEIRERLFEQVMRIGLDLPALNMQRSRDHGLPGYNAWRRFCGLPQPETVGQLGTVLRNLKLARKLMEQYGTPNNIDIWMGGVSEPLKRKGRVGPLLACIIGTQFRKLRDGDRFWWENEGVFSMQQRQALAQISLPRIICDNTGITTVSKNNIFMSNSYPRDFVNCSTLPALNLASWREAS
T1 sequence (P05164 165-273 limits assumed): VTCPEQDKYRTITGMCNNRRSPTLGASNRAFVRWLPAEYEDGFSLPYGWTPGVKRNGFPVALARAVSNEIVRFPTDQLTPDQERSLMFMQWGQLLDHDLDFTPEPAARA

azide
MPO-dependent lipid oxidation in plasma (9-H(P)ODE and 9-H(P)ETE) [1]: inhibited | neutrophil-dependent peroxidation of endogenous plasma lipids (9-H(P)ODE and 9-H(P)ETE) [2]: complete inhibition

CSCC[C@H](N)C(=O)O [methionine]
MPO-dependent lipid oxidation in plasma (9-H(P)ODE and 9-H(P)ETE) [1]: not affected | neutrophil-dependent peroxidation of endogenous plasma lipids (9-H(P)ODE and 9-H(P)ETE) [2]: failed to attenuate

CCCCc1nc(Cl)c(CO)n1Cc1ccc(-c2ccccc2-c2nn[nH]n2)cc1 [losartan]
Nitrotyrosine ([3]; plasma protein-bound): 8.1 umol/mol | 9-H(P)ETE ([3]; plasma): 0.27 mmol/mol | Chlorotyrosine ([3]; plasma): 14.3 umol/mol | Dityrosine ([3]; plasma): 28.5 umol/mol | F2Isoprostane ([3]; plasma): 0.68 mmol/mol | MPO ([3]; plasma): 9.9 ng/mL

CC(C)c1c(C(=O)Nc2ccccc2)c(-c2ccccc2)c(-c2ccc(F)cc2)n1CC[C@@H](O)C[C@@H](O)CC(=O)O [Atorvastatin, atorvastatin]
MPO ([4]; plasma, 16 weeks of Atorvastatin 10 mg PO QD): 17.3 ± 4.8 ng/mL | MPO, % change ([4]; reduction, baseline to 16 weeks of Atorvastatin 10 mg PO QD, given unsigned): 12.2% | Chlorotyrosine, absolute change [5, 10]: -6 µmol/mol tyrosine | Dityrosine, absolute change [5, 10]: -11 µmol/mol tyrosine | ortho-tyrosine, absolute change [5, 10]: -8 µmol/mol tyrosine | Chlorotyrosine [5, 11]: 13 ± 4 µmol/mol tyrosine | Dityrosine [5, 11]: 23 ± 8 µmol/mol tyrosine | ortho-tyrosine [5, 11]: 81 ± 40 µmol/mol tyrosine | Chlorotyrosine, % change [5, 12]: 30% | Dityrosine, % change [5, 12]: 32% | ortho-tyrosine, % change [5, 13]: 9% | reduction in dityrosine [6, 14]: 30% | reduction in nitrotyrosine [6, 14]: 24% | decrease in hs-CRP ([6]; n=35, failed to reach significance): 11% | Apolipoprotein B-100 [7, 15]: 96 ± 21 mg/dL | C-reactive protein [7, 15]: 0.23 ± 0.33 mg/dL and 0.23 mg/dL | Total cholesterol level [7, 15]: 190 ± 28 mg/dL | Apolipoprotein B-100, absolute change [7, 10]: -39 mg/dL | C-reactive protein, absolute change [7, 10]: -0.2 mg/dL | Total cholesterol, absolute change [7, 10]: -63 mg/dL | Triglycerides, absolute change [7, 10]: -14 mg/dL | Triglycerides ([7]; fasting, 12 Weeks of atorvastatin 10 mg orally per day, n = 35, mean ± SD): 132 ± 81 mg/dL | Apolipoprotein B-100, % change [7, 12]: 29% | Total cholesterol, % change [7, 12]: 25% | C-reactive protein, % change [7, 13]: 11% | Triglycerides, % change [7, 13]: 10% | Nitrotyrosine, absolute change [8, 10]: -4 µmol/mol tyrosine | Nitrotyrosine [8, 11]: 11 ± 5 µmol/mol tyrosine | Nitrotyrosine, % change [8, 12]: 25%

O[C@H](CS)[C@H](O)CS (racemic) [dithiothreitol]
neutrophil-dependent peroxidation of endogenous plasma lipids (9-H(P)ODE and 9-H(P)ETE) [2]: failed to attenuate

NCCCC[C@H](N[C@@H](CCc1ccccc1)C(=O)O)C(=O)N1CCC[C@H]1C(=O)O [lisinopril]
Nitrotyrosine ([9]; plasma protein-bound): 10.3 µmol/mol | 9-H(P)ETE ([9]; plasma): 0.21 mmol/mol | Chlorotyrosine ([9]; plasma): 15.0 µmol/mol | Dityrosine ([9]; plasma): 24.1 µmol/mol | F2Isoprostane ([9]; plasma): 0.72 mmol/mol | MPO ([9]; plasma): 8.8 ng/mL
